The target in this experiment is T1, S1PR2 (Homo sapiens, UniProt O95136).
T1 construct: purchased
The experiment can be described thus: competitive [^32P]S1P binding assay on cell membranes, S1PR2.

Setting [1] is: [^32P]S1P competition, IC50 ± SD, Table 1 (2a-l, 4a-h), read-out: IC50 (binding potency toward S1PR2).
[2] abbreviates: [^32P]S1P competition, read-out: IC50 value, S1PR2 binding.
Setting [3] is: [^32P]S1P competition, IC50 ± SD, second Table 1, read-out: S2PR2 IC50.

Where two headings read alike, the source gives them in different places.

T1 sequence (O95136 whole entry): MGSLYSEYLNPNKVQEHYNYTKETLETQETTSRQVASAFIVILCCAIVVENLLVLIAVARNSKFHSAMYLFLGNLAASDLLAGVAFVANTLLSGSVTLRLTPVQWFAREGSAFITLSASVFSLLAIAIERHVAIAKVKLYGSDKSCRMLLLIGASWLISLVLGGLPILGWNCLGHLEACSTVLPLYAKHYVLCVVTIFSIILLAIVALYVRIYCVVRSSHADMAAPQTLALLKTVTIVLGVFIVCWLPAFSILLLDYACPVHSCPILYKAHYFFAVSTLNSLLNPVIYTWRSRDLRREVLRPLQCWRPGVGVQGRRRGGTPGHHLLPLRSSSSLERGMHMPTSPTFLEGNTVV

One may read the IC50 as the concentration that inhibits the measured activity by half. As for `COc1cccc(NC(=O)Cn2c(=O)c3ccccc3n(CC(=O)Nc3cc(Cl)c(OC)cc3OC)c2=O)c1` [Compound 2b], the IC50 under setting [1] came out at 39.1 ± 7 nM. As to `COc1cc(OC)c(NC(=O)Cn2c(=O)n(CC(=O)Nc3ccc(O)cc3)c(=O)c3ccccc32)cc1Cl` [Compound 2e], under setting [2], the IC50 was determined as 2.6 ± 0.3 nM. For the molecule `COc1cc(OC)c(NC(=O)Cn2c(=O)n(CC(=O)NCCc3cccnc3)c(=O)c3ccccc32)cc1Cl` [Compound 2f], the concentration for half-maximal inhibition (IC50) under setting [1] is 58.7 ± 9 nM. Same read-out and setting: next, `COc1cc(OC)c(NC(=O)Cn2c(=O)n(CC(=O)Nc3cc(Cl)nc(Cl)c3)c(=O)c3ccccc32)cc1Cl` [Compound 2g]: above 1000 nM; `COc1cc(OC)c(NC(=O)Cn2c(=O)n(CC(=O)NCCOCCO)c(=O)c3ccccc32)cc1Cl` [Compound 2i]: 91.4 ± 17.6 nM. Same read-out and setting: next, `CNC(=O)Cn1c(=O)c2ccccc2n(CC(=O)Nc2cc(Cl)c(OC)cc2OC)c1=O` [Compound 2k]: 376 ± 91 nM; `COc1cc(OC)c(NC(=O)Cn2c(=O)n(CC(=O)N(C)C)c(=O)c3ccccc32)cc1Cl` [Compound 2l]: 175 ± 13 nM. For `CCC(CC)CC1(O)CCN(C(=O)Nc2cc(OCCF)cc(Oc3ccc(F)cc3)c2)CC1` [Compound 11a, 4-(2-Ethylbutyl)-N-(3-(2-fluoroethoxy)-5-(4-fluorophenoxy)phenyl)-4-hydroxypiperidine-1-carboxamide], the IC50 was above 1000 nM under setting [3] and above 1000 nM under setting [2]. With `CCC(CC)CC1(O)CCN(C(=O)Nc2cc(OCCCF)cc(Oc3ccc(F)cc3)c2)CC1` [Compound 11b, 4-(2-Ethylbutyl)-N-(3-(4-fluorophenoxy)-5-(3-fluoropropoxy)phenyl)-4-hydroxypiperidine-1-carboxamide], the half-maximal inhibitory concentration (IC50) reads like this: under setting [3], above 1000 nM; under setting [2], above 1000 nM.

For `CN1CCN(c2cc(Oc3ccc(F)cc3)cc([N+](=O)[O-])c2)CC1` [Compound 15a, 1-(3-(4-Fluorophenoxy)-5-nitrophenyl)-4-methylpiperazine], the half-maximal inhibitory concentration (IC50) under setting [2] was above 1000 nM. On the same count and under the same terms, next, `O=[N+]([O-])c1cc(Oc2ccc(F)cc2)cc(-n2cccn2)c1` [Compound 15b, 1-(3-(4-Fluorophenoxy)-5-nitrophenyl)-1H-pyrazole]: above 1000 nM. Consider `CCC(CC)CC1(O)CCN(C(=O)Nc2cc(Oc3ccc(F)cc3)cc(N3CCN(C)CC3)c2)CC1` [Compound 17a, 4-(2-Ethylbutyl)-N-(3-(4-fluorophenoxy)-5-(4-methylpiperazin-1-yl)phenyl)-4-hydroxypiperidine-1-carboxamide], for which the half-inhibitory concentration (IC50) under setting [3] was above 1000 nM.

Regarding `CCC(CC)CC1(O)CCN(C(=O)Nc2cc(Oc3ccc(F)cc3)cc(-n3cccn3)c2)CC1` [Compound 17b, 4-(2-Ethylbutyl)-N-(3-(4-fluorophenoxy)-5-(1H-pyrazol-1-yl)phenyl)-4-hydroxypiperidine-1-carboxamide], the IC50 under setting [3] is above 1000 nM.

As for `CCC(CC)CC1(O)CCN(C(=O)Nc2cc(Oc3ccc(C(=O)NC)cc3)cc(C(F)(F)F)c2)CC1` [Compound 21c, 4-(2-Ethylbutyl)-4-hydroxy-N-(3-(4-(methylcarbamoyl)-phenoxy)-5 (trifluoromethyl)phenyl)piperidine-1-carboxamide], the half-maximal inhibitory concentration (IC50) under setting [3] turned out to be 278 nM. As to `CCC(CC)CC1(O)CCN(C(=O)Nc2cc(Oc3ccc(S(C)(=O)=O)cc3)cc(C(F)(F)F)c2)CC1` [Compound 21f, 4-(2-Ethylbutyl)-4-hydroxy-N-(3-(4-(methylsulfonyl)phenoxy)-5-(trifluoromethyl)phenyl)piperidine-1-carboxamide], the IC50 under setting [2] came to 270 nM.

In the case of `CNC(=O)c1ccc(Oc2cc(NC(=O)N3CCC(C)(O)CC3)cc(C(F)(F)F)c2)cc1` [Compound 25a, 4-Hydroxy-4-methyl-N-(3-(4-(methylcarbamoyl)phenoxy)-5-(trifluoromethyl)phenyl)piperidine-1-carboxamide], the 50% inhibitory concentration (IC50) under setting [3] was above 1000 nM. Still for that read-out and setting: next, `CC1(O)CCN(C(=O)Nc2cc(Oc3ccc(S(C)(=O)=O)cc3)cc(C(F)(F)F)c2)CC1` [Compound 25b, 4-Hydroxy-4-methyl-N-(3-(4-(methylsulfonyl)phenoxy)-5-(trifluoromethyl)phenyl)piperidine-1-carboxamide]: above 1000 nM. On the same count and under the same terms, next, `CCC1(O)CCN(C(=O)Nc2cc(Oc3ccc(C(=O)NC)cc3)cc(C(F)(F)F)c2)CC1` [Compound 25c, 4-Ethyl-4-hydroxy-N-(3-(4-(methylcarbamoyl)phenoxy)-5-(trifluoromethyl)phenyl)piperidine-1-carboxamide]: above 1000 nM; `CCC1(O)CCN(C(=O)Nc2cc(Oc3ccc(S(C)(=O)=O)cc3)cc(C(F)(F)F)c2)CC1` [Compound 25d, 4-Ethyl-4-hydroxy-N-(3-(4-(methylsulfonyl)phenoxy)-5-(trifluoromethyl)phenyl)piperidine-1-carboxamide]: above 1000 nM. The same measure, in the same setting: next, `CNC(=O)c1ccc(Oc2cc(NC(=O)N3CCC(O)(C(C)C)CC3)cc(C(F)(F)F)c2)cc1` [Compound 25e, 4-Hydroxy-4-isopropyl-N-(3-(4-(methylcarbamoyl)phenoxy)-5-(trifluoromethyl)phenyl)piperidine-1-carboxamide]: above 1000 nM; `CC(C)C1(O)CCN(C(=O)Nc2cc(Oc3ccc(S(C)(=O)=O)cc3)cc(C(F)(F)F)c2)CC1` [Compound 25f, 4-Hydroxy-4-isopropyl-N-(3-(4-(methylsulfonyl)phenoxy)-5-(trifluoromethyl)phenyl)piperidine-1-carboxamide]: above 1000 nM; `CNC(=O)c1ccc(Oc2cc(NC(=O)N3CCC(O)(CC(C)C)CC3)cc(C(F)(F)F)c2)cc1` [Compound 25g, 4-Hydroxy-4-isobutyl-N-(3-(4-(methylcarbamoyl)phenoxy)-5-(trifluoromethyl)phenyl)piperidine-1-carboxamide]: 359 nM. As to `CC(C)CC1(O)CCN(C(=O)Nc2cc(Oc3ccc(S(C)(=O)=O)cc3)cc(C(F)(F)F)c2)CC1` [Compound 25h, 4-Hydroxy-4-isobutyl-N-(3-(4-(methylsulfonyl)phenoxy)-5-(trifluoromethyl)phenyl)piperidine-1-carboxamide], the 50% inhibitory concentration (IC50) under setting [3] amounted to 296 nM. As for `CNC(=O)c1ccc(Oc2cc(NC(=O)N3CC(O)(CC(C)C)C3)cc(C(F)(F)F)c2)cc1` [Compound 25i, 3-Hydroxy-3-isobutyl-N-(3-(4-(methylcarbamoyl)phenoxy)-5-(trifluoromethyl)phenyl)azetidine-1-carboxamide], the IC50 is above 1000 nM under setting [3] and above 1000 nM under setting [2]. In the case of `CCC(CC)CC1(O)CCN(C(=O)Nc2cc(Oc3ccc(C(=O)NC)cc3)c3c(c2)oc2ccc(F)cc23)CC1` [TZ51-011], the half-inhibitory concentration (IC50) (Table 5, read-out: IC50 S1PR2) stood at 472 ± 244 nM.

Take `CCC(CC)CC1(O)CCN(C(=O)Nc2cc(Oc3ccc(C(=O)NC)cc3)cc(C(F)(F)F)c2)CC1` [TZ51-018]: the concentration for half-maximal inhibition (IC50) (Table 5, read-out: IC50 S1PR2) was above 1000 nM. As for `CNC(=O)c1ccc(Oc2cc(NC(=O)N3CCOCC3)cc(C(F)(F)F)c2)cc1` [TZ51-019], the half-maximal inhibitory concentration (IC50) (Table 5, read-out: IC50 S1PR2) is above 1000 nM. In the case of `CNC(=O)c1ccc(Oc2cc(NC(=O)N3CCC(=O)CC3)cc(C(F)(F)F)c2)cc1` [TZ51-020], the IC50 (IC50 S1PR2, Table 5) is above 1000 nM. Same read-out and setting: next, `CNC(=O)c1ccc(Oc2cc(NC(=O)N3CCC4(CC3)OCCO4)cc(C(F)(F)F)c2)cc1` [TZ51-022]: above 1000 nM. As for `CNC(=O)c1ccc(Oc2cc(NC(=O)N3CCC(O)CC3)cc(C(F)(F)F)c2)cc1` [TZ51-041], under “Table 5, read-out: IC50 S1PR2”, the IC50 was above 1000 nM. Still for that read-out and setting: next, `CNC(=O)c1ccc(Oc2cc(NC(=O)N3CCC(O)(C(C)C)CC3)cc(C(F)(F)F)c2)cc1` [TZ51-044]: above 1000 nM; `CC(C)C1(O)CCN(C(=O)Nc2cc(Oc3ccc(S(C)(=O)=O)cc3)cc(C(F)(F)F)c2)CC1` [TZ51-045]: above 1000 nM.

With `CCC1(O)CCN(C(=O)Nc2cc(Oc3ccc(C(=O)NC)cc3)cc(C(F)(F)F)c2)CC1` [TZ51-046], the IC50 (Table 5, read-out: IC50 S1PR2) is above 1000 nM.

On to `CCC1(O)CCN(C(=O)Nc2cc(Oc3ccc(S(C)(=O)=O)cc3)cc(C(F)(F)F)c2)CC1` [TZ51-047], for which the half-maximal inhibitory concentration (IC50) (Table 5, read-out: IC50 S1PR2) was above 1000 nM. Still for that read-out and setting: next, `CNC(=O)c1ccc(Oc2cc(NC(=O)N3CCC(C)(O)CC3)cc(C(F)(F)F)c2)cc1` [TZ51-057]: above 1000 nM. The same measure, in the same setting: next, `CC1(O)CCN(C(=O)Nc2cc(Oc3ccc(S(C)(=O)=O)cc3)cc(C(F)(F)F)c2)CC1` [TZ51-058]: above 1000 nM.

Consider `COc1ccc(Oc2cc(NC(=O)N3CCC(O)(C(C)C)CC3)cc(C(F)(F)F)c2)cc1` [TZ51-059], for which the concentration for half-maximal inhibition (IC50) (Table 5, read-out: IC50 S1PR2) is above 1000 nM. Still for that read-out and setting: next, `CC(C)C1(O)CCN(C(=O)Nc2cc(Oc3ccncc3)cc(C(F)(F)F)c2)CC1` [TZ51-061]: above 1000 nM; `CC(C)CC1(O)CCN(C(=O)Nc2cc(Oc3ccc(C(=O)O)cc3)cc(C(F)(F)F)c2)CC1` [TZ51-073]: above 1000 nM. As to `CC(C)CC1(O)CCN(C(=O)Nc2cc(Oc3ccc(C(=O)N(C)C)cc3)cc(C(F)(F)F)c2)CC1` [TZ51-095], the IC50 (Table 5, read-out: IC50 S1PR2) is above 1000 nM. Still for that read-out and setting: next, `CC(C)CC1(O)CCN(C(=O)Nc2cc(Oc3ccc(C(N)=O)cc3)cc(C(F)(F)F)c2)CC1` [TZ51-096]: above 1000 nM.

For the molecule `CNC(=O)c1ccc(Oc2cc(NC(=O)N3CC(O)(CC(C)C)C3)cc(C(F)(F)F)c2)cc1` [TZ51-097], the concentration for half-maximal inhibition (IC50) (Table 5, read-out: IC50 S1PR2) was above 1000 nM. As to `CNC(=O)c1ccc(Oc2cc(NC(=O)N3CCC(O)(CC(C)C)CC3)cc(C(F)(F)F)c2)cc1` [TZ51-108], the IC50 (Table 5, read-out: IC50 S1PR2) is above 1000 nM.

Regarding `CNC(=O)c1ccc(Oc2cc(NC(=O)N3CC(N4CCN(C)CC4)C3)cc(C(F)(F)F)c2)cc1` [TZ51-112], under “Table 5, read-out: IC50 S1PR2”, the IC50 was above 1000 nM. `CNC(=O)c1ccc(Sc2cc(NC(=O)N3CCC(O)(CC(C)C)CC3)cc(C(F)(F)F)c2)cc1` [TZ51-121]: the IC50 (Table 5, read-out: IC50 S1PR2) stood at 421 ± 90 nM. `CCC(CC)CC1(O)CCN(C(=O)Nc2cc(OCCCF)cc(Oc3ccc(C(=O)NC)cc3)c2)CC1` [TZ51-133]: the IC50 (Table 5, read-out: IC50 S1PR2) is above 1000 nM. Same read-out and setting: next, `CCC(CC)CC1(O)CCN(C(=O)Nc2cc(OCCCF)cc(Oc3ccc(F)cc3)c2)CC1` [TZ51-139]: above 1000 nM. On the same count and under the same terms, next, `CCC(CC)CC1(O)CCN(C(=O)Nc2cc(OCCF)cc(Oc3ccc(F)cc3)c2)CC1` [TZ51-149]: above 1000 nM; `CCC(CC)CC1(O)CCN(C(=O)Nc2nc(Oc3ccc(F)cc3)nc(Oc3ccc(F)cc3)n2)CC1` [TZ51-150]: above 1000 nM.

Values taken from US20200369626A1 (Washington University, priority 2019, published 2020).
